Reference: article PMC6934184, “Selective DNA-PKcs inhibition extends the therapeutic index of localized radiotherapy and chemotherapy” (The Journal of Clinical Investigation, 2019)

Biological target: T1, TYRO3 (RSE) (Homo sapiens, UniProt Q06418)
T1 construct: purchased Thermo Fisher Scientific (Life Technologies) SelectScreen
Assay: SelectScreen Z'LYTE
Type: biochemical
Outline: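 Compound tested in SelectScreen activity assays, Z'LYTE for CSF1R, CDK1/cyclin B and MAP2K6 and Adapta for CAMK1. ATP for CAMK1 was listed as 10, and Km app was used for CSF1R. Results are expressed in percent.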

T1 sequence (Q06418 41-890): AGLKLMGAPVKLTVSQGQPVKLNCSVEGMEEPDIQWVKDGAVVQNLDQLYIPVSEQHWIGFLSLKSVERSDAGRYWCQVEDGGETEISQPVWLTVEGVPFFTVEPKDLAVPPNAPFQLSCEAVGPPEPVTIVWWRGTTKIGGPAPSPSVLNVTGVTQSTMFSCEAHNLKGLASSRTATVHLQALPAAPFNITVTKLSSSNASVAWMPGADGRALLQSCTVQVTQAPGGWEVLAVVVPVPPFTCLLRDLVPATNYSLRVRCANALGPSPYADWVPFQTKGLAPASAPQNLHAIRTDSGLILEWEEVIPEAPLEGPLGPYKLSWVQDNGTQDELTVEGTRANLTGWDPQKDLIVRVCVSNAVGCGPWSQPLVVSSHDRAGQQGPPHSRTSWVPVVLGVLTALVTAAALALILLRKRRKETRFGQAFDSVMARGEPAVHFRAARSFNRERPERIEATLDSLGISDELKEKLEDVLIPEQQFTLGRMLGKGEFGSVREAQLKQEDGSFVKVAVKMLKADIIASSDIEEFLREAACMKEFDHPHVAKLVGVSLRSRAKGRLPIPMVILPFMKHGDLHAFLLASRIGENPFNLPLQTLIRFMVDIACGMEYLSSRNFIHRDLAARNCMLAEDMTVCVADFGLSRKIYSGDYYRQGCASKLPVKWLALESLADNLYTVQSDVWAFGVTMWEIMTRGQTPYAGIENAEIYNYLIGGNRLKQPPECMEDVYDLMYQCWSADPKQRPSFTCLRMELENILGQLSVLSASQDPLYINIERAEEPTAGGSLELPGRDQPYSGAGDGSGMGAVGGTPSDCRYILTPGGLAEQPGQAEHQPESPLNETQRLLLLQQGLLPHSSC

Which inhibition at 1 µM does the source give for `CN(C(=O)CN1CCOCC1)c1ccc2sc3c(-c4cccc5c(=O)cc(N6CC7CCC(C6)O7)oc45)cccc3c2c1` [NU5455] here?
Its inhibition at 1 µM is -5.1%.
